Measurements taken from patent publication US20100041089A1, “IMPROVED METHOD FOR DETECTING CHEMICAL […]” (priority 2006, published 2010).

Tested on: yeast genes (expressed mRNA)
Assay: DNA chip measurement of expressed mRNA of yeast genes after culture with a toxic chemical substance
Format: cell-based, Saccharomyces cerevisiae S288C
Summary of the method: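 S. cerevisiae S288C grown at 25 °C in YPD, exposed in log phase for 2 h to a toxicant at growth-inhibiting, non-lethal concentration. Cy3/Cy5-labelled cDNA from poly(A) mRNA hybridized to whole-genome chip at 65 °C >12 h. Ratio to untreated control, ≥2 significant.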

CN(C)C(=S)SSC(=S)N(C)C [(10), Tetramethylthiuram disulfide] was tested, and the “The level of expressed mRNA in the presence of chemical substance/The level of expressed mRNA in the absence of chemical substance” value (yeast gene YJL152W, cultured two hours with substance) was 1.0, the “The level of expressed mRNA in the presence of chemical substance/The level of expressed mRNA in the absence of chemical substance” value (yeast gene YJL161W, cultured two hours with substance) was 2.1 and the “The level of expressed mRNA in the presence of chemical substance/The level of expressed mRNA in the absence of chemical substance” value (yeast gene YJL171C, cultured two hours with substance) was 1.7. The “The level of expressed mRNA in the presence of chemical substance/The level of expressed mRNA in the absence of chemical substance” value (yeast gene YJL186W, cultured two hours with substance) was 0.5, the “The level of expressed mRNA in the presence of chemical substance/The level of expressed mRNA in the absence of chemical substance” value (yeast gene YJR008W, cultured two hours with substance) was 1.9 and the “The level of expressed mRNA in the presence of chemical substance/The level of expressed mRNA in the absence of chemical substance” value (yeast gene YJR010W) was 11.1. The “The level of expressed mRNA in the presence of chemical substance/The level of expressed mRNA in the absence of chemical substance” value (yeast gene YJR054W, cultured two hours with substance) was 0.6, the “The level of expressed mRNA in the presence of chemical substance/The level of expressed mRNA in the absence of chemical substance” value (yeast gene YJR155W) was 18.8 and the “The level of expressed mRNA in the presence of chemical substance/The level of expressed mRNA in the absence of chemical substance” value (yeast gene YJR155W, cultured for two hours with substance) was 18.8. The “The level of expressed mRNA in the presence of chemical substance/The level of expressed mRNA in the absence of chemical substance” value (yeast gene YKL070W) was 11.0, the “The level of expressed mRNA in the presence of chemical substance/The level of expressed mRNA in the absence of chemical substance” value (yeast gene YKL071W, cultured two hours with substance) was 109.2 and the “The level of expressed mRNA in the presence of chemical substance/The level of expressed mRNA in the absence of chemical substance” value (yeast gene YKL086W, cultured two hours with substance) was 20.5. For the same compound, the “The level of expressed mRNA in the presence of chemical substance/The level of expressed mRNA in the absence of chemical substance” value (yeast gene YKL151C, cultured two hours with substance) was 3.5, the “The level of expressed mRNA in the presence of chemical substance/The level of expressed mRNA in the absence of chemical substance” value (yeast gene YKL153W, cultured two hours with substance) was 1.4 and the “The level of expressed mRNA in the presence of chemical substance/The level of expressed mRNA in the absence of chemical substance” value (yeast gene YKL195W, cultured two hours with substance) was 2.1. For the same compound, the “The level of expressed mRNA in the presence of chemical substance/The level of expressed mRNA in the absence of chemical substance” value (yeast gene YKR076W) was 43.1, the “The level of expressed mRNA in the presence of chemical substance/The level of expressed mRNA in the absence of chemical substance” value (yeast gene YKR091W, cultured two hours with substance) was 1.6 and the “The level of expressed mRNA in the presence of chemical substance/The level of expressed mRNA in the absence of chemical substance” value (yeast gene YLL060C (detoxification protein gene)) was 23.2. The “The level of expressed mRNA in the presence of chemical substance/The level of expressed mRNA in the absence of chemical substance” value (yeast gene YLL060C (stress protein genes)) was 23.2, the “The level of expressed mRNA in the presence of chemical substance/The level of expressed mRNA in the absence of chemical substance” value (yeast gene YLR054C, cultured two hours with substance) was 1.1 and the “The level of expressed mRNA in the presence of chemical substance/The level of expressed mRNA in the absence of chemical substance” value (yeast gene YLR108C) was 10.4. For the same compound, the “The level of expressed mRNA in the presence of chemical substance/The level of expressed mRNA in the absence of chemical substance” value (yeast gene YLR149C, cultured two hours with substance) was 5.2, the “The level of expressed mRNA in the presence of chemical substance/The level of expressed mRNA in the absence of chemical substance” value (yeast gene YLR152C, cultured two hours with substance) was 1.1 and the “The level of expressed mRNA in the presence of chemical substance/The level of expressed mRNA in the absence of chemical substance” value (yeast gene YLR194C, cultured two hours with substance) was 1.1. The “The level of expressed mRNA in the presence of chemical substance/The level of expressed mRNA in the absence of chemical substance” value (yeast gene YLR217W, cultured two hours with substance) was 8.2, the “The level of expressed mRNA in the presence of chemical substance/The level of expressed mRNA in the absence of chemical substance” value (yeast gene YLR324W, cultured two hours with substance) was 1.4 and the “The level of expressed mRNA in the presence of chemical substance/The level of expressed mRNA in the absence of chemical substance” value (yeast gene YLR350W, cultured two hours with substance) was 1.4. The “The level of expressed mRNA in the presence of chemical substance/The level of expressed mRNA in the absence of chemical substance” value (yeast gene YLR387C, cultured two hours with substance) was 3.0, the “The level of expressed mRNA in the presence of chemical substance/The level of expressed mRNA in the absence of chemical substance” value (yeast gene YLR460C, cultured two hours with substance) was 31.6 and the “The level of expressed mRNA in the presence of chemical substance/The level of expressed mRNA in the absence of chemical substance” value (yeast gene YML117W, cultured two hours with substance) was 1.4. The “The level of expressed mRNA in the presence of chemical substance/The level of expressed mRNA in the absence of chemical substance” value (yeast gene YML131W) was 17.7, the “The level of expressed mRNA in the presence of chemical substance/The level of expressed mRNA in the absence of chemical substance” value (yeast gene YMR009W, cultured two hours with substance) was 2.2 and the “The level of expressed mRNA in the presence of chemical substance/The level of expressed mRNA in the absence of chemical substance” value (yeast gene YMR034C, cultured two hours with substance) was 2.7. The “The level of expressed mRNA in the presence of chemical substance/The level of expressed mRNA in the absence of chemical substance” value (yeast gene YMR067C, cultured two hours with substance) was 3.5, the “The level of expressed mRNA in the presence of chemical substance/The level of expressed mRNA in the absence of chemical substance” value (yeast gene YMR090W, cultured two hours with substance) was 6.1 and the “The level of expressed mRNA in the presence of chemical substance/The level of expressed mRNA in the absence of chemical substance” value (yeast gene YMR095C, cultured two hours with substance) was 1.4. For the same compound, the “The level of expressed mRNA in the presence of chemical substance/The level of expressed mRNA in the absence of chemical substance” value (yeast gene YMR097C, cultured two hours with substance) was 2.1, the “The level of expressed mRNA in the presence of chemical substance/The level of expressed mRNA in the absence of chemical substance” value (yeast gene YMR102C, cultured two hours with substance) was 2.6 and the “The level of expressed mRNA in the presence of chemical substance/The level of expressed mRNA in the absence of chemical substance” value (yeast gene YMR107W, cultured two hours with substance) was 17.1. For the same compound, the “The level of expressed mRNA in the presence of chemical substance/The level of expressed mRNA in the absence of chemical substance” value (yeast gene YMR140W, cultured two hours with substance) was 2.3, the “The level of expressed mRNA in the presence of chemical substance/The level of expressed mRNA in the absence of chemical substance” value (yeast gene YMR180C, cultured two hours with substance) was 2.2 and the “The level of expressed mRNA in the presence of chemical substance/The level of expressed mRNA in the absence of chemical substance” value (yeast gene YMR184W, cultured two hours with substance) was 0.9. For the same compound, the “The level of expressed mRNA in the presence of chemical substance/The level of expressed mRNA in the absence of chemical substance” value (yeast gene YMR191W, cultured two hours with substance) was 3.5, the “The level of expressed mRNA in the presence of chemical substance/The level of expressed mRNA in the absence of chemical substance” value (yeast gene YMR251W, cultured two hours with substance) was 11.6 and the “The level of expressed mRNA in the presence of chemical substance/The level of expressed mRNA in the absence of chemical substance” value (yeast gene YMR295C, cultured two hours with substance) was 0.8. For the same compound, the “The level of expressed mRNA in the presence of chemical substance/The level of expressed mRNA in the absence of chemical substance” value (yeast gene YMR316W, cultured two hours with substance) was 3.0, the “The level of expressed mRNA in the presence of chemical substance/The level of expressed mRNA in the absence of chemical substance” value (yeast gene YMR322C, cultured two hours with substance) was 10.3 and the “The level of expressed mRNA in the presence of chemical substance/The level of expressed mRNA in the absence of chemical substance” value (yeast gene YNL044W, cultured two hours with substance) was 0.8. For the same compound, the “The level of expressed mRNA in the presence of chemical substance/The level of expressed mRNA in the absence of chemical substance” value (yeast gene YNL074C, cultured two hours with substance) was 2.0.
